According to PubChem BioAssay (NCI):
Values joined by “and” are separate entries in the source; they are usually repeats but may differ in a detail not shown here. Equal entries are not always repeated.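 How tested: cells in 96-well plates exposed to compound for 48 hours at five concentrations. The concentration for 50% growth inhibition is given as GI50. TGI: concentration producing complete growth inhibition.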 Active and inactive are the calls of the source. Rule as the data show it: active = GI50 below about 0.43 µM; inactive = the rest.

The molecules below were run on MDA-MB-468 breast (assay: growth of human tumour cells (NCI), 48 h).

SMILES | GI50 | TGI | outcome
CNc1cc2nc3cc(NC)c(C)cc3cc2cc1C | 242 nM | 1.94 µM | 
CCOC(=O)c1ccc2c(c1)nc(/C=C/c1ccc(Cl)cc1)n2-c1cc(C(C)(C)C)[nH]n1 | 4680 nM | 95.6 µM | 
O=c1c2cccc(F)c2sc2c(N3CCNCC3)nc3ccccc3c12 | 1460 nM | 3.1 µM | 
O=C1C(Nc2ccc(Br)cc2)=C(I)C(=O)c2ncccc21 | 970 nM | 1.93 µM | 
O=[N+]([O-])c1ccc(Sc2nc(Cl)nc(NC3CCCC3)n2)cc1 | 2100 nM | 7.13 µM | 
Clc1nc(Cl)c2c3c(sc2n1)CCCC3 | 2100 nM |  | 
Cc1cc2nc3ccc(=[N+](C)C)cc-3sc2cc1N | 455 nM and 618 nM | 2.18 µM and 3.82 µM | 
Fc1ccc(-c2nn3c(-c4cc(C(F)(F)F)cc(C(F)(F)F)c4)nnc3s2)cc1 | 2530 nM | > 50 µM | 
CC1=C(C(=O)Nc2ccc3[nH]ncc3c2)C(c2ccc(Cl)c(Cl)c2)CC(=O)N1 (stereo not drawn) | > 18000 nM | > 25 µM | 
Cc1cccc2nc3cccc(C(=O)NCCNCCNCCNC(=O)c4cccc5nc6cccc(C)c6nc45)c3nc12 | 17.2 nM | 1.02 µM | 
Clc1cc2c(nn1)Nc1ccccc1S2 | > 100000 nM | > 100 µM | 
CN1CC[C@]2(c3cccc(O)c3)CC(=O)/C(=C/c3ccccc3)[C@H]1C2 | 2190 nM | 6.2 µM | 
CSc1ccc2c(c1)N(CCC1CCCCN1C)c1ccccc1S2 (stereo not drawn) | 1780 nM | 3.92 µM | 
COc1cc(/C=C2\Oc3cc(OCCCN4CCCC4)ccc3C2=O)cc(OC)c1 | 2930 nM | 13 µM | 
Cc1ccc(/C=C/C(=N/N=C(N)N)c2ccccc2)cc1 | 509 nM | 4.13 µM | 
COc1cc2nc(-c3ccc(Cl)cc3)cc(OCCCN3CCCC3)c2cc1OC | 1280 nM | 3.11 µM | 
O=C(O)C1C2C=CC(C2)C1C(=O)O (stereo not drawn) | > 100000 nM | > 100 µM | 
C=C1CC[C@@H]2[C@](C)(COC(C)=O)[C@H](OC(C)=O)CC[C@@]2(C)[C@@H]1CC(Nc1ccc(S(=O)(=O)Nc2cc(C)on2)cc1)C1=CCOC1=O (stereo partly drawn) | 1490 nM | 3.29 µM | 
Nc1ccc(-c2nnc(SCc3ccc(O)c4ncccc34)o2)cc1 | 38.7 nM | 1.16 µM | 
NC1CCC(Nc2nc(NCc3cc(Cl)ccc3O)c3ncn(C4CCCC4)c3n2)CC1 (stereo not drawn) | 158 nM | 0.468 µM | 
CC[C@@H](C(=O)[C@H](C)[C@H](O)[C@@H](C)[C@H]1O[C@H]([C@@H](CC)C(=O)O)CC[C@H]1C)C1O[C@]2(C=C[C@@H](O)[C@]3(CC[C@@](C)([C@H]4CC[C@](O)(CC)[C@H](C)O4)O3)O2)[C@H](C)C[C@@H]1C (stereo partly drawn) | 194 nM | 1.85 µM | 
CCCC[n+]1c(/C=C\c2c(OC)cc(OC)cc2OC)ccc2ccccc21 | 241 nM | 1.38 µM | 

SMILES | GI50 | TGI | outcome
CC(C)(CCN=C(N)Nc1ccccn1)c1ccc(C(F)(F)F)cc1 | 7070 nM | 22.3 µM | 
CCCCCCC/C=C/[C@H]1O[C@]2(O)C(=O)C=C3C[C@@H](O[C@@H]4O[C@H](CO)[C@@H](O)C(O)[C@@H]4O)C[C@@H]3[C@H]2C=C1C (stereo partly drawn) | 3420 nM | 11.4 µM | 
COc1ccc(-c2nn(-c3cccc(NC(=O)Nc4ccccc4)c3)cc2-c2ccncc2)cc1Cl | 2260 nM | 6.43 µM | 
c1ccc(Nc2nc(-c3ccccn3)cs2)nc1 | 1130 nM | 11.5 µM | 
CO[C@]12C=C/C(=C(/C(=O)OCc3cccnc3)C(=O)CCCCCCCC[C@@]3(OC)C=C/C(=C(/C(=O)OCc4cccnc4)C(=O)CCCCCCCC1)O3)O2 | 919 nM | 2.3 µM | 
CCCCCc1cc[n+](CC(=O)c2ccc([N+](=O)[O-])cc2)cc1 | 2170 nM | 8.06 µM | 
CN(C)CCC=C1c2ccccc2C(C)(C)c2ccccc21 | 2590 nM | 14 µM | 
O=C(CCCCCCN1CC(=O)N2[C@@H](c3cccc(Br)c3)c3[nH]c4ccccc4c3C[C@H]2C1=O)NO | 2090 nM | 5.47 µM | 
COc1ccc(-c2nc(Nc3ccc(-c4nc5ccccc5[nH]4)cc3)nc(N3CCOCC3)n2)cc1 | 2920 nM | 7.65 µM | 
CCC(C)[C@H](NC(=O)NC(=O)NC(=O)CI)C(=O)OC (stereo partly drawn) | 3540 nM | 12.6 µM | 
C=C1CCC2C3(C)COC(c4c(OC)cccc4OC)OC3CCC2(C)C1C/C=C1/C(=O)OCC1O (stereo not drawn) | 1470 nM | 3.35 µM | 
Nc1nc2c(nnn2C2OC(CO)C(O)C2O)c(=O)[nH]1 (stereo not drawn) | 488 nM | 5.37 µM | 
Cc1[nH]c(C(=O)Nc2ccccc2OC2CCNCC2)c(Cl)c1Cl | 930 nM | 1.9 µM | 
CCCCCCCCCCC/C=C\C[C@H](O)C/C=C1/C(=O)C=C[C@@H]1C/C=C\CCCC(=O)OC | 864 nM | 3.76 µM | 
O=C(N=Nc1c(O)[nH]c2ccccc12)c1oc2ccccc2c1CN1CCN(c2ccccc2)CC1 | 1240 nM | 3.89 µM | 
O=c1c2c(c3ccccc3n1-c1ccccc1)NC(=S)NC2c1ccc(Cl)cc1 (stereo not drawn) | 19000 nM | > 100 µM | 
Nc1ccccc1NC(=O)c1ccc(CN2CCC/C(=C\c3ccccn3)C2=O)cc1 | 1330 nM | 3.88 µM | 
COC(=O)c1ccc(NC2=C/C(=N/S(=O)(=O)c3ccc(C(=O)O)cc3)c3ccccc3C2=O)cc1 | 1710 nM | 4.04 µM | 
COC(C(=O)C(O)C(C)O)C1Cc2cc3cc(OC4CC(OC5CC(O)C(O)C(C)O5)C(O)C(C)O4)c(C)c(O)c3c(O)c2C(=O)C1OC1CC(OC2CC(O)C(OC3CC(C)(O)C(O)C(C)O3)C(C)O2)C(O)C(C)O1 (stereo not drawn) |  |  | inactive
COc1cccc(-n2cc(-c3nc(Nc4cc(C)[nH]n4)c4ccccc4n3)nn2)c1 | 4320 nM | 15.7 µM | 
CCN(Cc1ccccc1Cl)c1ccc(CO)c(Cl)c1 |  | 0.116 µM | 
